From patent US8349805B2, “Use of Gonadorelin as a therapeutic agent” (priority 2007, dated 2013) come the findings set out here.

Experiment [1] relates to murine spleen cells. Description: Th1/Th2 cytokine profiling assay. The format is cell-based, Balb/c mice. The following applies: 10 micrograms per ml; Ovalbumin-restimulated murine spleen cells, 72 hours.
From the text: The Balb/c mice (originated in 1923, it is a popular strain and is used in many different research disciplines. Also classified as an inbred from the production of 20 or more successive brother-sister matings, the Balb/c mouse is albino and small in size) were immunized on Days 1, 15, and 29 with Ovalbumin (Ovalbumin is the main protein found in egg white, commonly used to stimulate an immunological reaction in test animals) in PBS (5 micrograms/injection). On day 50, spleens of the mice were harvested (3 weeks after last boost with Ovalbumin). Cells were cultured (2×10^5/well in triplicate) and incubated with culture medium or test peptides—10 micrograms per ml—for 30 min. Thereafter, additional Ovalbumin was added to the cells at 10 micrograms/ml for in vitro restimulation of the cells. 72 hours later, cell supernatants were harvested and assayed using the Becton Dickinson Mouse Th1/Th2 Cytokine CBA Kit.
Experiment [2] has as its system A549 cells. Description: Apoptosis prevention assay (C2 ceramide, Annexin-5). The experiment is classed as cell-based, human. The following applies: 10 micrograms per ml, 30 min pretreatment, combination 0.95:1.05 mole.
Experiment [3] relates to HCMV strain AD169. As to the kind of experiment: HCMV plaque formation assay in MRC-5 cells. Conditions: 10 micrograms per ml, 7-10 days.
The test system of experiment [4] is hepatitis B virus (HBV) ayw strain. Description: HBV replication assay in HepG2-2.2.15 cells (TaqMan PCR of secreted HBV DNA). Conditions: 10 micrograms per ml; HepG2-2.2.15, 6 days; combination 0.95 mole peptide 1 and 1.05 mole peptide 2. The format is cell-based. In general terms: Quantitative PCR measures a nucleic acid by following its amplification.
The test system of experiment [5] is Primary Human endothelial cells (HUVEC). As to the kind of experiment: Endothelial cell migration assay. Conditions: 10 micrograms per ml, 22 hours. The experiment is classed as cell-based. The procedure: Thereafter, designated concentration of testing peptides—10 micrograms per ml—was added in duplicate wells.
Experiment [6] relates to HUVEC. Description: Endothelial tube formation assay. The following applies: 10 micrograms per ml, 20 hours, combination 1.10 mole:0.90 mole. The format is cell-based, human. An excerpt: Positive control was vehicle only.

Ends that are not written are not given here.

`CC(C)C[C@H](NC(=O)CNC(=O)[C@H](Cc1ccc(O)cc1)NC(=O)[C@H](CO)NC(=O)[C@H](Cc1c[nH]c2ccccc12)NC(=O)[C@H](Cc1cnc[nH]1)NC(=O)[C@@H]1CCC(=O)N1)C(=O)N[C@@H](CCCNC(=N)N)C(=O)N1CCC[C@H]1C(=O)NCC(N)=O` [Peptide 1]: in experiment [1], the “change of the production of TNF-alpha” value is on record as “did not significantly change”, the “production of IFN-γ (decreased by %)” value is on record as “did not significantly change”, the “production of IL-2 (induced by %)” value was 43.6% and the “production of IL-4 (decreased by %)” value came to 65.9%. Besides, in experiment [1], the “production of IL-5 (decreased by %)” value is listed as 44.1%. In experiment [2], the “reduction of the ceramide-induced apoptosis on human lung cells” value stood at 27.05%. In addition, the “inhibition of HCMV plaque formation as compared to the virus control” value in experiment [3] was “did not inhibit”. Besides, in experiment [4], the “inhibition of HBV replication as compared to the virus control infection” value came to 30.4%. The “inhibition of the migration of human endothelial cells” value in experiment [5] (combination 1.10 mole:0.90 mole) is 39%. Also, in experiment [6], the “inhibition of the tube formation of human endothelial cells” value came out at 6%.
Turning to “Met-Gln-Met-Lys-Lys-Val-Leu-Asp-Ser-OH (MQMKKVLDS-OH) [Peptide 2]”, in experiment [1], the “change of the production of TNF-alpha” value is recorded as “did not significantly change”, the “production of IFN-γ (decreased by %)” value was 27.5%, the “production of IL-2 (induced by %)” value is on record as “did not significantly change” and the “production of IL-4 (decreased by %)” value was “did not significantly change”. Also, the “production of IL-5 (decreased by %)” value in experiment [1] is on record as 38.8%. Besides, in experiment [2], the “reduction of the ceramide-induced apoptosis on human lung cells” value was “did not reduce”. Moreover, the “inhibition of HCMV plaque formation as compared to the virus control” value in experiment [3] is reported as “did not inhibit”. Moreover, in experiment [4], the “inhibition of HBV replication as compared to the virus control infection” value is given as “no effect”. For the same compound, the “increase of the migration of endothelial cells” value in experiment [5] was found to be 16%. In addition, the “inhibition of the tube formation of human endothelial cells” value in experiment [6] turned out to be 4%.
